The values that follow come from BindingDB's records for patent US12247013 (Antabio, 2025).

The target in this assay is Elastase (Pseudomonas aeruginosa (strain ATCC 15692 / DSM 22644 / CIP 104116 / JCM 14847 / LMG 12228 / 1C / PRS 101 / PAO1), UniProt P14756). Description: Fluorometric Assay. As to the method: Method: 10 to 140 ng/ml purified LasB is incubated with 250 μM Abz-Ala-Gly-Leu-Ala-p-Nitro-Benzyl-Amide in 50 mM Tris-HCl pH 7.4, 2.5 mM CaCl2), 0.01% of Triton X100 at 37° C. LasB activity (corresponding to fluorescence emission induced by substrate hydrolysis) is measured over 30 min at 37° C. with a fluorescence plate reader such as the Perkin Elmer Envision or similar. Different range of inhibitor concentrations are routinely assessed depending of inhibitor potency from 0.0016 to 200 μM (2-fold dilutions series) in order to determine IC50.
Elastase, sequence (P14756 whole entry): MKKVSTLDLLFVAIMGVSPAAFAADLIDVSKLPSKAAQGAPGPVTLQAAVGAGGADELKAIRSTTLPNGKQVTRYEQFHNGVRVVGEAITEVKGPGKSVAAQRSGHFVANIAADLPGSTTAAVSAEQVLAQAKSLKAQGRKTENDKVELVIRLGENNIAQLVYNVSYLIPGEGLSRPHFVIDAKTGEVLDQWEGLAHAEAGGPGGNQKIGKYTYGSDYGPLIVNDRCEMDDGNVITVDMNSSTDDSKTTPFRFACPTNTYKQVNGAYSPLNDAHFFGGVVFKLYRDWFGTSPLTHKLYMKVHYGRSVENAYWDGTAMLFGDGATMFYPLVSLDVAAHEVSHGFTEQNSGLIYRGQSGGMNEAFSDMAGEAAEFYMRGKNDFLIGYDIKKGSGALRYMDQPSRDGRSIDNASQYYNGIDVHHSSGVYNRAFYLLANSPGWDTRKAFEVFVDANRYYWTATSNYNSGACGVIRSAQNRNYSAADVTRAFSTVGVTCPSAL

Structures are written as SMILES. pKi: −log10 of the molar value.

On to `COc1cc2sc(CNC(=O)C3(CC(=O)O)Cc4cc(F)c(F)cc4C3)nc2cc1C(=O)N1CCN(C)CC1` [US12247013, Example 34], for which the pKi was above 7.30.

As a reminder, the pKi is the Ki on a negative log10 scale, so that one unit is a factor of ten. Low readings indicate a large Ki, high ones a small Ki.
